The record followed here is ChEMBL document CHEMBL1201862, “PubChem BioAssay data set” (2004).

Each structure is given as a SMILES string.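 A five-concentration, 48-hour dose response in 96-well plates underlies each endpoint, interpolated linearly between surrounding concentrations. The concentration for 50% growth inhibition is given as GI50.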 Calls of active or inactive are those of the source. Rule as the data show it: active = GI50 up to about 1.1 µM and inactive = higher.

Some test systems named below: EKVX; SR; K562; RPMI-8226; IGROV-1; MDA-N; RXF 393; SF-295; HOP-62; NCI-H460; OVCAR-8; SK-OV-3; MOLT-4; NCI-H23; ACHN; NCI/ADR-RES; SF-539; SN12C; TK-10; MDA-MB-435.
What all share (assay): growth of human tumour cells (NCI), 48 h

For the compound `CSc1nc(NC2CCCC2)c2cc[nH]c2n1`, the GI50 is 31.2 µM (inactive) in the experiment on EKVX; 22.3 µM (inactive) in the experiment on SR; 32.9 µM (inactive) in the experiment with K562; 33.6 µM (inactive) with RPMI-8226; 98.2 µM (inactive) with IGROV-1; 54.3 µM (inactive) with MDA-N. In addition, the GI50 in the experiment on RXF 393 was > 100 µM (inactive); in the experiment with SF-295 it was 34.8 µM (inactive); with HOP-62, > 100 µM (inactive); with NCI-H460 it was > 100 µM (inactive); with OVCAR-8, 89.1 µM (inactive); in the experiment with SK-OV-3, > 100 µM (inactive). The GI50 is 42.4 µM (inactive) with MOLT-4; 91 µM (inactive) with NCI-H23; 64.7 µM (inactive) in the experiment with ACHN; 71.1 µM (inactive) with NCI/ADR-RES; > 100 µM (inactive) in the experiment with SF-539; > 100 µM (inactive) with SN12C. Besides, the GI50 was 72.6 µM (inactive) in the experiment on TK-10 and 59.2 µM (inactive) in the experiment on MDA-MB-435.
Regarding `O=C(CCCC1Cc2ccccc2C1=O)c1ccccc1` (stereo not given), the GI50 with EKVX is 65.2 µM (inactive); with SR, 41.2 µM (inactive); in the experiment with K562 it was 39.8 µM (inactive); with RPMI-8226, 46.9 µM (inactive); in the experiment on IGROV-1, > 100 µM (inactive); in the experiment with MDA-N, 66.2 µM (inactive). For the same compound, the GI50 in the experiment on RXF 393 is 52.5 µM (inactive); in the experiment with SF-295 it was 47.5 µM (inactive); with HOP-62 it was > 100 µM (inactive); with NCI-H460 it was 89.9 µM (inactive); with OVCAR-8, 79.6 µM (inactive); in the experiment with SK-OV-3, > 100 µM (inactive). Also, the GI50 in the experiment with MOLT-4 is 33.3 µM (inactive); in the experiment on NCI-H23, 60.1 µM (inactive); with ACHN, 98.4 µM (inactive); in the experiment on NCI/ADR-RES it was 26.9 µM (inactive); in the experiment with SF-539, > 100 µM (inactive); with SN12C, 54.7 µM (inactive). For the same compound, the GI50 was 84.5 µM (inactive) with TK-10 and 56.1 µM (inactive) in the experiment with MDA-MB-435.
For the compound `CCOC(=O)C(C(N)=O)C1=Nc2cc([N+](=O)[O-])ccc2N/C1=C\C(=O)c1ccc(C)cc1` (stereo not given), the GI50 with EKVX was 26.7 µM (inactive); in the experiment with SR, 7.55 µM (inactive); in the experiment on K562 it was 2.46 µM (inactive); in the experiment with RPMI-8226, 18.1 µM (inactive); in the experiment on IGROV-1, 17.4 µM (inactive); with MDA-N, 43.3 µM (inactive). Also, the GI50 with RXF 393 was 17.6 µM (inactive); in the experiment on SF-295, 19.4 µM (inactive); with HOP-62 it was 16.8 µM (inactive); in the experiment with NCI-H460 it was 22.2 µM (inactive); in the experiment with OVCAR-8, 19 µM (inactive); in the experiment on SK-OV-3 it was 18.3 µM (inactive). Moreover, the GI50 with MOLT-4 is 0.522 µM (active); in the experiment on NCI-H23 it was 16.9 µM (inactive); in the experiment with ACHN, 21.3 µM (inactive); with NCI/ADR-RES, 22.1 µM (inactive); with SF-539, 17.1 µM (inactive); in the experiment on SN12C it was 26.2 µM (inactive). Besides, the GI50 in the experiment with TK-10 was 14.8 µM (inactive); with MDA-MB-435 it was 39.4 µM (inactive).
Consider `O=[N+]([O-])C(/C(Cl)=C(\Cl)Br)=C(/Cl)SCc1ccccc1`, for which the GI50 was 6.67 µM (inactive) in the experiment with EKVX; 1.44 µM (inactive) with SR; 1.27 µM (inactive) with K562; 1.72 µM (inactive) with RPMI-8226; 5.9 µM (inactive) with IGROV-1; 1.85 µM (inactive) in the experiment on MDA-N. Also, the GI50 in the experiment with RXF 393 is 2.35 µM (inactive); in the experiment with SF-295, 16.9 µM (inactive); with HOP-62 it was 15.1 µM (inactive); in the experiment on NCI-H460, 12.8 µM (inactive); with OVCAR-8 it was 2.26 µM (inactive); with SK-OV-3, 19.6 µM (inactive). Also, the GI50 in the experiment on MOLT-4 was 0.778 µM (active); with NCI-H23, 5.71 µM (inactive); in the experiment with ACHN, 2.97 µM (inactive); with NCI/ADR-RES, 2.77 µM (inactive); in the experiment with SF-539, 8.83 µM (inactive); in the experiment with SN12C, 3.31 µM (inactive). Also, the GI50 was 4.5 µM (inactive) with TK-10 and 1.87 µM (inactive) in the experiment on MDA-MB-435.
Take `CN(C)c1ccc2cc3ccc(N(C)C)cc3nc2c1` [ACRIDINE ORANGE]: the GI50 was 1.87 µM (inactive) in the experiment with EKVX; 0.0849 µM (active) in the experiment with SR; 0.397 µM (active) with K562; 0.527 µM (active) with RPMI-8226; 2.2 µM (inactive) in the experiment on IGROV-1; 1.19 µM (inactive) in the experiment on MDA-N. Besides, the GI50 with RXF 393 is 3.74 µM (inactive); in the experiment with SF-295, 2.08 µM (inactive); with HOP-62, 2.02 µM (inactive); in the experiment on NCI-H460 it was 0.393 µM (active); with OVCAR-8, 1.56 µM (inactive); in the experiment on SK-OV-3, 5.85 µM (inactive). In addition, the GI50 with MOLT-4 is 0.134 µM (active); with NCI-H23 it was 1.51 µM (inactive); in the experiment on ACHN, 0.611 µM (active); with NCI/ADR-RES, 1.43 µM (inactive); in the experiment on SF-539, 1.88 µM (inactive); with SN12C, 0.962 µM (active). Moreover, the GI50 with TK-10 is 2.86 µM (inactive); in the experiment on MDA-MB-435, 1.79 µM (inactive).
